Counter-ions that a name gives are not always drawn.

For this assay, the target named is FAK (Homo sapiens, UniProt Q05397). The assay is described as follows: biochemical.
Chain of FAK (Q05397 whole entry): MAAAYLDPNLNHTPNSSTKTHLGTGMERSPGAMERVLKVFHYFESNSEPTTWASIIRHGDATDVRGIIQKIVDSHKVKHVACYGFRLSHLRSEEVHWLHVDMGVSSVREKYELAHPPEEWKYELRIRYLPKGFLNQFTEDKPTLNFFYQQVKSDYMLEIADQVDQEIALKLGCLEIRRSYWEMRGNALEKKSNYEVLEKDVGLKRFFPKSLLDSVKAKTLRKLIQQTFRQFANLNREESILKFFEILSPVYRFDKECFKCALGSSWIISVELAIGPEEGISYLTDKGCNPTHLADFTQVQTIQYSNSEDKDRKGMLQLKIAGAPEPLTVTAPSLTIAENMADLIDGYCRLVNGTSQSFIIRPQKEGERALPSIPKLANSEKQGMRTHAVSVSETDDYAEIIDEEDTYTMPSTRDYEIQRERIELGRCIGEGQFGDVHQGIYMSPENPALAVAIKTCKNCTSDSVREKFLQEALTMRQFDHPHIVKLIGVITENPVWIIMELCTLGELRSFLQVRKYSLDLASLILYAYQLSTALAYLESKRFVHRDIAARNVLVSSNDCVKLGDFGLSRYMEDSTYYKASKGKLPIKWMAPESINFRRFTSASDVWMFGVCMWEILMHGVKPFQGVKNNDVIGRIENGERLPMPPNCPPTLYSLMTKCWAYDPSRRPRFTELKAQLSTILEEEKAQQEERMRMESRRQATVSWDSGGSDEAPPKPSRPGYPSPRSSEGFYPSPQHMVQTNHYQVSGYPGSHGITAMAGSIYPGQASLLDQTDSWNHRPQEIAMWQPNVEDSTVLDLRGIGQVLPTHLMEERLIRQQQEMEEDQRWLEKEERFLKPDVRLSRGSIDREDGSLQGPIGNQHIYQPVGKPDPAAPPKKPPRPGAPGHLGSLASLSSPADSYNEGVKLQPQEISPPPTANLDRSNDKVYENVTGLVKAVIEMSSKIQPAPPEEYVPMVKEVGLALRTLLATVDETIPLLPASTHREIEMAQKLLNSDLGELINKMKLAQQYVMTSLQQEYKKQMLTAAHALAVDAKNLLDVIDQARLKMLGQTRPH
`CCOP(=O)(OCC)C(O)c1ccc(Nc2ncc(C(F)(F)F)c(Nc3ccccc3C(=O)NC)n2)cc1` (stereo not drawn) [Example 133, Diethyl [hydroxy(4-{[4-{[2-(methylcarbamoyl)phenyl]amino}-5-(trifluoromethyl)pyrimidin-2-yl]amino}phenyl)methyl]phosphonate trifluoroacetate]: the IC50 (as a rule, the concentration at which inhibition is half-maximal) is under 1000 nM. `CCOP(=O)(Cc1ccc(Nc2ncc(C(F)(F)F)c(Nc3ccc(-c4cnn(CC(C)C)c4)cc3C(=O)NC)n2)cc1)OCC` [Example 134, Diethyl (4-{[4-({2-(methylcarbamoyl)-4-[1-(2-methylpropyl)-1H-pyrazol-4-yl]phenyl}amino)-5-(trifluoromethyl)pyrimidin-2-yl]amino}benzyl)phosphonate]: the half-inhibitory concentration (IC50) was under 1000 nM.

For `CCOP(=O)(Cc1ccc(Nc2ncc(C(F)(F)F)c(Nc3ccc(-c4cnn(C[C@H](O)CO)c4)cc3C(=O)NC)n2)cc1)OCC` [Example 135, Diethyl (4-{[4-{[4-{1-[(2S)-2,3-dihydroxypropyl]-1H-pyrazol-4-yl}-2-(methylcarbamoyl)phenyl]amino}-5-(trifluoromethyl)pyrimidin-2-yl]amino}benzyl)phosphonate], the IC50 is under 1000 nM. `CCOP(=O)(Cc1ccc(Nc2ncc(C(F)(F)F)c(Nc3ccc(-c4cnn(C5CC(O)C5)c4)cc3C(=O)NC)n2)cc1)OCC` (stereo not drawn) [Example 136, Diethyl (4-{[4-({4-[1-(3-hydroxycyclobutyl)-1H-pyrazol-4-yl]-2-(methylcarbamoyl)phenyl}amino)-5-(trifluoromethyl)pyrimidin-2-yl]amino}benzyl)phosphonate]: the IC50 is under 1000 nM. Compound `CCOP(=O)(Cc1ccc(Nc2ncc(C(F)(F)F)c(Nc3ccc(-c4cnn(CCO)c4)cc3C(=O)NC)n2)cc1)OCC` [Example 145, Diethyl (4-{[4-({4-[1-(2-hydroxyethyl)-1H-pyrazol-4-yl]-2-(methylcarbamoyl)phenyl}amino)-5-(trifluoromethyl)pyrimidin-2-yl]amino}benzyl)phosphonate] registered an IC50 of under 1000 nM. For the compound `CCOP(=O)(Cc1cc(F)c(Nc2ncc(C(F)(F)F)c(Nc3ccccc3C(=O)NC)n2)c(OC)c1)OCC` [Example 146, Diethyl (3-fluoro-5-methoxy-4-{[4-{[2-(methylcarbamoyl)phenyl]amino}-5-(trifluoromethyl)pyrimidin-2-yl]amino}benzyl)phosphonate], the IC50 was under 1000 nM. `CCOP(=O)(Cc1ccc(Nc2ncc(C(F)(F)F)c(Nc3ccc(C#N)cc3C(=O)NC)n2)cc1)OCC` [Example 150, Diethyl (4-{[4-{[4-cyano-2-(methylcarbamoyl)phenyl]amino}-5-(trifluoromethyl)pyrimidin-2-yl]amino}benzyl)phosphonate]: the IC50 was under 1000 nM. `CCNC(=O)c1ccccc1Nc1nc(Nc2ccc(CP(=O)(OCC)OCC)cc2)ncc1C(F)(F)F` [Example 152, Diethyl (4-{[4-{[2-(ethylcarbamoyl)phenyl]amino}-5-(trifluoromethyl)pyrimidin-2-yl]amino}benzyl)phosphonate]: the IC50 is under 1000 nM. Compound `CCNC(=O)c1ccccc1Nc1nc(Nc2ccc(CP(=O)(OCC)OCC)cc2OC)ncc1C(F)(F)F` [Example 153, Diethyl (4-{[4-{[2-(ethylcarbamoyl)phenyl]amino}-5-(trifluoromethyl)pyrimidin-2-yl]amino}-3-methoxybenzyl)phosphonate] came in with an IC50 of under 1000 nM. In turn, `CCOP(=O)(Cc1ccc(Nc2ncc(C(F)(F)F)c(Nc3cccc4c3C(=O)N(C)C4C)n2)cc1)OCC` (stereo not drawn) [Example 157, Diethyl [4-({4-[(1,2-dimethyl-3-oxo-2,3-dihydro-1H-isoindol-4-yl)amino]-5-(trifluoromethyl)pyrimidin-2-yl}amino)benzyl]phosphonate] had an IC50 of under 1000 nM.

For the compound `CCOC(c1ccc(Nc2ncc(C(F)(F)F)c(Nc3ccccc3C(=O)NC)n2)cc1)P(=O)(OCC)OCC` (stereo not drawn) [Example 159, Diethyl [ethoxy(4-{[4-{[2-(methylcarbamoyl)phenyl]amino}-5-(trifluoromethyl)pyrimidin-2-yl]amino}phenyl)methyl]phosphonate], the IC50 was under 1000 nM. As for `CCOP(=O)(OCC)C(OC)c1ccc(Nc2ncc(C(F)(F)F)c(Nc3ccccc3C(=O)NC)n2)cc1` (stereo not drawn) [Example 160, Diethyl [methoxy(4-{[4-{[2-(methylcarbamoyl)phenyl]amino}-5-(trifluoromethyl)pyrimidin-2-yl]amino}phenyl)methyl]phosphonate], the IC50 is under 1000 nM. The compound `CCOP(=O)(Cc1ccc(Nc2ncc(C(F)(F)F)c(Nc3ccc(C#N)c4c3C(=O)N(C)C4)n2)cc1)OCC` [Example 161, Diethyl [4-({4-[(7-cyano-2-methyl-3-oxo-2,3-dihydro-1H-isoindol-4-yl)amino]-5-(trifluoromethyl)pyrimidin-2-yl}amino)benzyl]phosphonate] showed an IC50 of under 1000 nM. On to `CCOP(=O)(Cc1ccc(Nc2ncc(C(F)(F)F)c(Nc3ccc(C#N)c4c3C(=O)N(C)C4)n2)c(OC)c1)OCC` [Example 162, Diethyl [4-({4-[(7-cyano-2-methyl-3-oxo-2,3-dihydro-1H-isoindol-4-yl)amino]-5-(trifluoromethyl)pyrimidin-2-yl}amino)-3-methoxybenzyl]phosphonate], for which the IC50 was under 1000 nM. `CCOP(=O)(Cc1ccc(Nc2ncc(C(F)(F)F)c(Nc3ccc(-c4cnn(CCOC)c4)cc3C(=O)NC)n2)cc1)OCC` [Example 163, Diethyl (4-{[4-({4-[1-(2-methoxyethyl)-1H-pyrazol-4-yl]-2-(methylcarbamoyl)phenyl}amino)-5-(trifluoromethyl)pyrimidin-2-yl]amino}benzyl) phosphonate]: the IC50 was under 1000 nM. `CCOP(=O)(Cc1ccc(Nc2ncc(C(F)(F)F)c(Nc3ccc([C@H]4CC[C@H](OCC)CC4)c4c3C(=O)N(C)C4)n2)c(OC)c1)OCC` [Example 170, Diethyl (4-{[4-{[7-(trans-4-ethoxycyclohexyl)-2-methyl-3-oxo-2,3-dihydro-1H-isoindol-4-yl]amino}-5-(trifluoromethyl)pyrimidin-2-yl]amino}-3-methoxybenzyl)phosphonate] had an IC50 of under 1000 nM.

For `CCOP(=O)(Cc1ccc(Nc2ncc(C(F)(F)F)c(Nc3ccc([C@H]4CC[C@H](O)CC4)cc3C(=O)N(C)C)n2)cc1)OCC` [Example 173, Diethyl (4-{[4-{[2-(dimethylcarbamoyl)-4-(trans-4-hydroxycyclohexyl)phenyl]amino}-5-(trifluoromethyl)pyrimidin-2-yl]amino}benzyl)phosphonate], the concentration for half-maximal inhibition (IC50) is under 1000 nM. Next, `CCOP(=O)(Cc1ccc(Nc2ncc(C(F)(F)F)c(Nc3ccccc3C(=O)N3CCN(C)CC3)n2)cc1)OCC` [Example 177, Diethyl (4-{[4-({2-[(4-methylpiperazin-1-yl)carbonyl]phenyl}amino)-5-(trifluoromethyl)pyrimidin-2-yl]amino}benzyl)phosphonate]: under 1000 nM. With `CCOP(=O)(Cc1ccc(Nc2ncc(C(F)(F)F)c(Nc3ccccc3C(=O)N3CCCC3)n2)c(OC)c1)OCC` [Example 178, Diethyl (3-methoxy-4-{[4-{[2-(pyrrolidin-1-ylcarbonyl)phenyl]amino}-5-(trifluoromethyl)pyrimidin-2-yl]amino}benzyl)phosphonate], the IC50 was under 1000 nM. For `CCOP(=O)(Cc1ccc(Nc2ncc(C(F)(F)F)c(Nc3ccccc3C(=O)N3CCN(C)CC3)n2)c(OC)c1)OCC` [Example 179, Diethyl (3-methoxy-4-{[4-({2-[(4-methylpiperazin-1-yl)carbonyl]phenyl}amino)-5-(trifluoromethyl)pyrimidin-2-yl]amino}benzyl)phosphonate], the IC50 is under 1000 nM. Next, `CCOP(=O)(Cc1ccc(Nc2ncc(C(F)(F)F)c(Nc3ccc(-c4cnn(CCN(CC)CC)c4)cc3C(=O)NC)n2)cc1)OCC` [Example 180, Diethyl (4-{[4-{[4-{1-[2-(diethylamino)ethyl]-1H-pyrazol-4-yl}-2-(methylcarbamoyl)phenyl]amino}-5-(trifluoromethyl)pyrimidin-2-yl]amino}benzyl)phosphonate]: under 1000 nM. For `CCOP(=O)(Cc1ccc(Nc2ncc(C(F)(F)F)c(Nc3ccc(-c4nn[nH]n4)c4c3C(=O)N(C)C4)n2)cc1)OCC` [Example 181, Diethyl (4-{[4-{[2-methyl-3-oxo-7-(2H-tetrazol-5-yl)-2,3-dihydro-1H-isoindol-4-yl]amino}-5-(trifluoromethyl)pyrimidin-2-yl]amino}benzyl)phosphonate], the IC50 is under 1000 nM. As for `CCOP(=O)(Cc1ccc(Nc2ncc(C(F)(F)F)c(Nc3cccc4c3C(=O)N(O)C4)n2)c(OC)c1)OCC` [Example 186, Diethyl [4-({4-[(2-hydroxy-3-oxo-2,3-dihydro-1H-isoindol-4-yl)amino]-5-(trifluoromethyl)pyrimidin-2-yl}amino)-3-methoxybenzyl]phosphonate trifluoroacetate], the figure is under 1000 nM; as for `CCOP(=O)(Cc1ccc(Nc2ncc(C(F)(F)F)c(Nc3cccc4c3C(=O)N(OC)C4)n2)c(OC)c1)OCC` [Example 187, Diethyl [3-methoxy-4-({4-[(2-methoxy-3-oxo-2,3-dihydro-1H-isoindol-4-yl)amino]-5-(trifluoromethyl)pyrimidin-2-yl}amino)benzyl]phosphonate trifluoroacetate], under 1000 nM; as for `CCOP(C)(=O)Cc1ccc(Nc2ncc(C(F)(F)F)c(Nc3ccc([C@H]4CC[C@@](C)(O)CC4)c4c3C(=O)N(C)C4)n2)c(OC)c1` (stereo partly drawn) [Example 200, Ethyl (4-{[4-{[7-(cis-4-hydroxy-4-methylcyclohexyl)-2-methyl-3-oxo-2,3-dihydro-1H-isoindol-4-yl]amino}-5-(trifluoromethyl)pyrimidin-2-yl]amino}-3-methoxybenzyl)methylphosphinate], under 1000 nM.

As for `CCOP(=O)(Cc1ccc(Nc2ncc(C(F)(F)F)c(Nc3ccc(OC)c4c3C(=O)N(C)C4)n2)cc1)OCC` [Example 205, Diethyl [4-({4-[(7-methoxy-2-methyl-3-oxo-2,3-dihydro-1H-isoindol-4-yl)amino]-5-(trifluoromethyl)pyrimidin-2-yl}amino)benzyl]phosphonate], the IC50 is under 1000 nM. As to `CCOc1ccc(Nc2nc(Nc3ccc(CP(=O)(OCC)OCC)cc3OC)ncc2C(F)(F)F)c2c1CN(C)C2=O` [Example 210, Diethyl [4-({4-[(7-ethoxy-2-methyl-3-oxo-2,3-dihydro-1H-isoindol-4-yl)amino]-5-(trifluoromethyl)pyrimidin-2-yl}amino)-3-methoxybenzyl]phosphonate], the half-inhibitory concentration (IC50) was under 1000 nM.

The values above are taken from patent publication US9096624B2 (OSI Pharmaceuticals, LLC, priority 2009, dated 2015).
